According to the kinase profiling compilation of Christmann-Franck et al. (2016):

Key:
Assay in all cases: KINOMEscan competition binding
Settings in all cases: compound 10.0 µM
[1] = biological target: STK24 (human) (UniProt Q9Y6E0)
[2] = biological target: RPS6KA2 KD2 (human) (UniProt Q15349)
[3] = biological target: ACVR2A (human) (UniProt P27037)
[4] = biological target: STK17B (human) (UniProt O94768)
[5] = biological target: DAPK2 (human) (UniProt Q9UIK4)
[6] = biological target: PIP4K2B (human) (UniProt P78356)
PIP4K2B (human), sequence (P78356 whole entry, looked up): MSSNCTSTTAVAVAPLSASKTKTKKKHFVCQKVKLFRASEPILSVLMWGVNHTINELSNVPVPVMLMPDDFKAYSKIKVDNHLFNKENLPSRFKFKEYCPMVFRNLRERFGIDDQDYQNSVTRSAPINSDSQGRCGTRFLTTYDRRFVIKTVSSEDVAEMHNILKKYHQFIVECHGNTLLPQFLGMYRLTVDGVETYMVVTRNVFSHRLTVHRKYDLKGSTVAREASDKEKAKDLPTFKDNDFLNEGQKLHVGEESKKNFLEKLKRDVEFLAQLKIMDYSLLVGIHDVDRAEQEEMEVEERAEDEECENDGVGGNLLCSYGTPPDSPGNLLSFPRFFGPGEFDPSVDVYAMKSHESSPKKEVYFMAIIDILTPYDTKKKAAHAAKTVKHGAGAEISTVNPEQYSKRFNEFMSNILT

[7] = tested on: KIT (human), P10721 [V559D/V654A]
[8] = biological target: TAOK1 (human) (UniProt Q7L7X3)
[9] = biological target: CSNK2A1 (human) (UniProt P68400)
[10] = biological target: MAPK15 (human) (UniProt Q8TD08)
[11] = biological target: DAPK3 (human) (UniProt O43293)
[12] = biological target: TLK1 (human) (UniProt Q9UKI8)
[13] = biological target: CSNK1E (human) (UniProt P49674)
[14] = biological target: PIM2 (human) (UniProt Q9P1W9)
PIM2 (human), sequence (Q9P1W9 whole entry, looked up): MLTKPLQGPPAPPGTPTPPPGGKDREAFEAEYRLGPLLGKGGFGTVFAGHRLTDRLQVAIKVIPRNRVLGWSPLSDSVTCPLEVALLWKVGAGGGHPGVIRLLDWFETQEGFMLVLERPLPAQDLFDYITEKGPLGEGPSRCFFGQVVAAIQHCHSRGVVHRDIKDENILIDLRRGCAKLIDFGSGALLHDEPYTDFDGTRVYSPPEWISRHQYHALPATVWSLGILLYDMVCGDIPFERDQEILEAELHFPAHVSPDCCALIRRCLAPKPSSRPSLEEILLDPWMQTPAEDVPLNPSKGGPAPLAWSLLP

[15] = biological target: CSNK2A2 (human) (UniProt P19784)
CSNK2A2 (human), sequence (P19784 whole entry, looked up): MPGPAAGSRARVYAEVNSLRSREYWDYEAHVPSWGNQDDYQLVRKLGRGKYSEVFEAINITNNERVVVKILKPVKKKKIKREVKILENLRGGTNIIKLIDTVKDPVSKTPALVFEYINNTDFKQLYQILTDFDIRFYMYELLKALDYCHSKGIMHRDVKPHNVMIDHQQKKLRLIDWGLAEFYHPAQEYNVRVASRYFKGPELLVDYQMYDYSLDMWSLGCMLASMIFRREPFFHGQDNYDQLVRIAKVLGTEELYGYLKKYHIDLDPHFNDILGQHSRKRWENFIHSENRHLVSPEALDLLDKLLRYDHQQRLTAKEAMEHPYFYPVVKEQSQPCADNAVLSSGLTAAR

[16] = biological target: PIM3 (human) (UniProt Q86V86)
[17] = biological target: DYRK1B (human) (UniProt Q9Y463)
[18] = biological target: CDK7 (human) (UniProt P50613)
[19] = biological target: BMP2K (human) (UniProt Q9NSY1)
[20] = biological target: PIK3CG (human) (UniProt P48736)
PIK3CG (human), sequence (P48736 whole entry, looked up): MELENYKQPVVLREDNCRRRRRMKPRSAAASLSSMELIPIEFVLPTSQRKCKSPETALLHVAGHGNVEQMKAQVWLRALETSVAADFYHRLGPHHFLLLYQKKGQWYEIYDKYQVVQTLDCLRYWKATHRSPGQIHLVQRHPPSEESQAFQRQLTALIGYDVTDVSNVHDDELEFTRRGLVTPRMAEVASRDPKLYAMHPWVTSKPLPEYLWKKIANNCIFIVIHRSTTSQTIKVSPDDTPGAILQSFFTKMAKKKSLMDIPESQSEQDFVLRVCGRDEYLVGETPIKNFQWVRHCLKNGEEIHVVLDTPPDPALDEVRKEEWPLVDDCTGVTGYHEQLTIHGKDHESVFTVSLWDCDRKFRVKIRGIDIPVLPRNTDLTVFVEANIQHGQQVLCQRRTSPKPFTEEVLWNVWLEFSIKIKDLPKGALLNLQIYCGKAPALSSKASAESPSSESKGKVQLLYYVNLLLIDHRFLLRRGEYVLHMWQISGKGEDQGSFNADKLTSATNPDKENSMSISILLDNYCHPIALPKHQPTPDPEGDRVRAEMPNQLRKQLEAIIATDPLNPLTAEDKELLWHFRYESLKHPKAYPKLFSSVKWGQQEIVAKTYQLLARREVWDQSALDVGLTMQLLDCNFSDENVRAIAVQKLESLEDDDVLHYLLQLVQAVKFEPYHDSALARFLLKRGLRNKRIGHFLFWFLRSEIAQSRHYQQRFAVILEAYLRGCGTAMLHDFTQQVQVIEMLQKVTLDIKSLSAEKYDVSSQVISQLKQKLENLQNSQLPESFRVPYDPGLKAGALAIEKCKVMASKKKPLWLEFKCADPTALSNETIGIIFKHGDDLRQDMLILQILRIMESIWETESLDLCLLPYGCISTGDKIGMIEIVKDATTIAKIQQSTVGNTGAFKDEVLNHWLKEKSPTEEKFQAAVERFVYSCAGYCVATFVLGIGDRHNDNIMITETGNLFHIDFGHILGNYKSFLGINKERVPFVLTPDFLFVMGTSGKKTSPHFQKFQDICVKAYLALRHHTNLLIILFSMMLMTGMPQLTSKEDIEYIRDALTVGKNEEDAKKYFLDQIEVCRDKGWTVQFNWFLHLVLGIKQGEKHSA

[21] = biological target: GAK (human) (UniProt O14976)
[22] = biological target: MINK1 (human) (UniProt Q8N4C8)
MINK1 (human), sequence (Q8N4C8 whole entry, looked up): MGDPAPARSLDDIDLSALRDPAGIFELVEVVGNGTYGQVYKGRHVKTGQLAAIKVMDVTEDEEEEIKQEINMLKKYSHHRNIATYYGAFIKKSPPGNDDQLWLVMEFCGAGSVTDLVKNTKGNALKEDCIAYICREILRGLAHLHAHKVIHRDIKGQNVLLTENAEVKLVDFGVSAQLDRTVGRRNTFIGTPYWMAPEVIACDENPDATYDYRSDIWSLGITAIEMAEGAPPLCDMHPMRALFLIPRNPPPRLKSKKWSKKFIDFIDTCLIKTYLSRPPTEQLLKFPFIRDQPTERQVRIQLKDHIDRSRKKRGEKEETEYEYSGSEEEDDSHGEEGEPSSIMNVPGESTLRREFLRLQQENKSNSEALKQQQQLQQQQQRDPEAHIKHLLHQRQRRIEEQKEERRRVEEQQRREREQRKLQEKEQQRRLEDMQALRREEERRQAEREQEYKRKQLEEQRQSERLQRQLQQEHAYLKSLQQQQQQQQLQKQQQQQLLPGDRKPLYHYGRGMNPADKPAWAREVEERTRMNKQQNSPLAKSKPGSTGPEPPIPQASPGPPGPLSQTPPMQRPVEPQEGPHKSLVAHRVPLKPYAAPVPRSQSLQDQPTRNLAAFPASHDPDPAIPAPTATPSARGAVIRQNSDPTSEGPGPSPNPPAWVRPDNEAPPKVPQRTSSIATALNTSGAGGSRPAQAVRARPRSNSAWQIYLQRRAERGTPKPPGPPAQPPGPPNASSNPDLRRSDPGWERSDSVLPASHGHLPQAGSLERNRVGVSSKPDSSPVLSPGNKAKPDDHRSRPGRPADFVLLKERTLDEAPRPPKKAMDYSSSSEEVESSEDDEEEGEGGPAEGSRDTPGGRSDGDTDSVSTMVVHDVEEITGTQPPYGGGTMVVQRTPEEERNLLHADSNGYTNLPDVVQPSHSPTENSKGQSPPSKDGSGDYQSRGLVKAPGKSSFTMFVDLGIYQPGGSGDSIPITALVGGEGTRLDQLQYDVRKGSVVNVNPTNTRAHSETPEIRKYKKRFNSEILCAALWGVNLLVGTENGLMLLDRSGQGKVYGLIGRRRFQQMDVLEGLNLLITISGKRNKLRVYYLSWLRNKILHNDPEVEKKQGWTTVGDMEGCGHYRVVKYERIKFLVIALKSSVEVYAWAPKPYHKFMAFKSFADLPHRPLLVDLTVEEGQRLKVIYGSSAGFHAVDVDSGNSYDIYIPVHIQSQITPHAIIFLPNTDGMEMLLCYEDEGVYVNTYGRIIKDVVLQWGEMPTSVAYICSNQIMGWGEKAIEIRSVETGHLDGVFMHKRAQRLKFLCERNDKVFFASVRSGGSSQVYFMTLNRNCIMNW

[23] = biological target: MAP4K4 (human) (UniProt O95819)
[24] = biological target: TNIK (human) (UniProt Q9UKE5)
[25] = biological target: BMPR1B (human) (UniProt O00238)
[26] = biological target: RPS6KA5 KD2 (human) (UniProt O75582)
RPS6KA5 KD2 (human), sequence (O75582 whole entry, looked up): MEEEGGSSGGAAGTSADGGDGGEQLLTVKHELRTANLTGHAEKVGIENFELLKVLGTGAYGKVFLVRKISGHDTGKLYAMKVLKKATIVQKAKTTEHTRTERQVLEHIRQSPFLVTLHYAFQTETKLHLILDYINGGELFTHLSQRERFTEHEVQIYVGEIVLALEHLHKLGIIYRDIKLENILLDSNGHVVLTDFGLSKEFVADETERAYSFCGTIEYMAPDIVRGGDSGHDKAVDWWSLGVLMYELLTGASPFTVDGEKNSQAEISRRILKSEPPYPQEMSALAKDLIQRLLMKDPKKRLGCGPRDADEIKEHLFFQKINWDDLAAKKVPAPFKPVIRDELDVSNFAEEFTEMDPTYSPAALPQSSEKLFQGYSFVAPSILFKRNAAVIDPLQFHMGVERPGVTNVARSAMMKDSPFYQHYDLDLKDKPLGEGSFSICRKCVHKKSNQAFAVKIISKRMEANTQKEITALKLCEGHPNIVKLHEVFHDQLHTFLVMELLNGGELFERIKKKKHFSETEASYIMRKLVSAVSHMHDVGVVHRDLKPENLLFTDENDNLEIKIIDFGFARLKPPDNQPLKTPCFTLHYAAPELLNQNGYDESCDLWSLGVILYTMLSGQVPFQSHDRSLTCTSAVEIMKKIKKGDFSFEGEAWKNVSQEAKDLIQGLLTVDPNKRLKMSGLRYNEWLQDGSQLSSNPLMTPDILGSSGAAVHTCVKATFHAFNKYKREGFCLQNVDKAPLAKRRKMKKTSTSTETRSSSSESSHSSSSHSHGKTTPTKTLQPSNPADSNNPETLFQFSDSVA

[27] = biological target: RIOK1 (human) (UniProt Q9BRS2)
RIOK1 (human), sequence (Q9BRS2 whole entry, looked up): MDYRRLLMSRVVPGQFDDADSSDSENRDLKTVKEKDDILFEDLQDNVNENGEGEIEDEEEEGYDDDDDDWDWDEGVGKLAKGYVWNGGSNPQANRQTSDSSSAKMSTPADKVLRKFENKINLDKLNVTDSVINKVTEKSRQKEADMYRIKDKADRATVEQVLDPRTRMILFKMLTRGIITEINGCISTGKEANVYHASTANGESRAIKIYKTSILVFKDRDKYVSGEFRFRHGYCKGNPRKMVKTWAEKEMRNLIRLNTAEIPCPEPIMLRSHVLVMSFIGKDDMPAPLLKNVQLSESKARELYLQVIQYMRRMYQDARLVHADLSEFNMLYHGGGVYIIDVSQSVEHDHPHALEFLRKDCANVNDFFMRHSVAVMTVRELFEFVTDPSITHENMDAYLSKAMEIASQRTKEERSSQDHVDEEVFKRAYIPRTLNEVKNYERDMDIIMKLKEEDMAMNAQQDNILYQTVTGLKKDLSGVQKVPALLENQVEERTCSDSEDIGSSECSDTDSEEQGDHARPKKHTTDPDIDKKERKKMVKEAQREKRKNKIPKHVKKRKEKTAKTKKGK

[28] = biological target: SRPK3 (human) (UniProt Q9UPE1)
[29] = tested on: EGFR (human), P00533 [G719S]
[30] = tested on: EGFR (human), P00533 [747-751 del / S ins]
[31] = biological target: RIOK2 (human) (UniProt Q9BVS4)
[32] = tested on: KIT (human), P10721 [D816V]
[33] = biological target: CSNK1G1 (human) (UniProt Q9HCP0)
[34] = tested on: KIT (human), P10721 [V559D]
[35] = tested on: FLT3 (human), P36888 [N841I]
[36] = biological target: AURKB (human) (UniProt Q96GD4)
[37] = biological target: KIT (human) (UniProt P10721)
[38] = biological target: TTK (human) (UniProt P33981)
[39] = biological target: MYLK (human) (UniProt Q15746)
[40] = biological target: PHKG2 (human) (UniProt P15735)
[41] = biological target: MAP2K4 (human) (UniProt P45985)

SMILES | kinase still bound, per cent of control [3] [%] | kinase still bound, per cent of control [4] [%] | kinase still bound, per cent of control [5] [%] | kinase still bound, per cent of control [6] [%] | kinase still bound, per cent of control [8] [%] | kinase still bound, per cent of control [9] [%] | kinase still bound, per cent of control [10] [%] | kinase still bound, per cent of control [11] [%] | kinase still bound, per cent of control [14] [%] | kinase still bound, per cent of control [15] [%] | kinase still bound, per cent of control [16] [%] | kinase still bound, per cent of control [17] [%] | kinase still bound, per cent of control [18] [%] | kinase still bound, per cent of control [19] [%] | kinase still bound, per cent of control [20] [%] | kinase still bound, per cent of control [21] [%] | kinase still bound, per cent of control [22] [%] | kinase still bound, per cent of control [23] [%] | kinase still bound, per cent of control [25] [%] | kinase still bound, per cent of control [27] [%] | further results
N=C1NC(=O)/C(=C/c2ccc(-c3csc4ccccc34)o2)S1 | 10 | 0.4 | 14 | 26 | 18 | 12 | 7.6 | 29 | 0.3 | 11 | 5.4 | 25 | – | – | – | – | – | – | – | – | kinase still bound, per cent of control [1]: 18%; kinase still bound, per cent of control [2]: 21%; kinase still bound, per cent of control [7]: 24%; kinase still bound, per cent of control [12]: 11%; kinase still bound, per cent of control [13]: 22%
N=C1NC(=O)/C(=C/c2c[nH]c(=O)c(-c3ccc(N4CCNCC4)nc3)c2)S1 | – | 1.7 | 2.3 | 8.4 | 32 | – | 4 | 4.7 | 1.8 | 32 | 8 | 1 | 8.8 | 6.3 | 33 | 30 | 29 | 9 | 11 | 10 | kinase still bound, per cent of control [2]: 33%; kinase still bound, per cent of control [24]: 18%; kinase still bound, per cent of control [26]: 11%; kinase still bound, per cent of control [28]: 23%
CS(=O)(=O)Nc1ccc(-c2cncc(/C=C3\SC(=N)NC3=O)c2)cc1 | 0.9 | 5.4 | 14 | – | 1.4 | – | 13 | 25 | – | – | – | 17 | – | 22 | 32 | – | 4.4 | 5.5 | 10 | 7.8 | kinase still bound, per cent of control [29]: 24%; kinase still bound, per cent of control [30]: 24%; kinase still bound, per cent of control [31]: 23%; kinase still bound, per cent of control [32]: 2.2%; kinase still bound, per cent of control [33]: 18%; kinase still bound, per cent of control [34]: 6%; kinase still bound, per cent of control [35]: 28%; kinase still bound, per cent of control [36]: 24%; kinase still bound, per cent of control [24]: 19%; kinase still bound, per cent of control [12]: 26%; kinase still bound, per cent of control [13]: 2.8%; kinase still bound, per cent of control [37]: 8.2%; kinase still bound, per cent of control [28]: 34%
N=C1NC(=O)/C(=C/c2ccc(-c3ccc(C(N)=O)cc3O)o2)S1 | – | 1.5 | 24 | – | 2.2 | 5.8 | 0.1 | 25 | 0.8 | 6.7 | 5.4 | 5.6 | 1 | – | 2.6 | 6.6 | – | – | – | – | kinase still bound, per cent of control [38]: 34%
CS(=O)(=O)Nc1ccc(-c2ncc(/C=C3\SC(=N)NC3=O)s2)cc1 | 18 | 24 | 3.2 | – | – | – | – | 6.9 | 4.3 | – | 2 | 3.1 | – | 29 | – | 2.8 | 1.3 | 7.9 | 14 | 27 | kinase still bound, per cent of control [32]: 4.4%; kinase still bound, per cent of control [33]: 22%; kinase still bound, per cent of control [39]: 19%; kinase still bound, per cent of control [24]: 16%; kinase still bound, per cent of control [38]: 19%
N=C1NC(=O)/C(=C/c2ccc(-c3ccccc3O)o2)S1 | 31 | 2 | 3.2 | 28 | 0 | 9.9 | 0.3 | 7.4 | 1.4 | 17 | 2.1 | 1.8 | 1.4 | 14 | – | 7.6 | 15 | – | 8.8 | 21 | kinase still bound, per cent of control [30]: 31%; kinase still bound, per cent of control [40]: 16%; kinase still bound, per cent of control [41]: 16%; kinase still bound, per cent of control [39]: 14%; kinase still bound, per cent of control [26]: 29%
N=C1NC(=O)/C(=C/c2ccc(-c3ccc(F)cc3O)o2)S1 | – | 2.9 | 4.1 | – | 0 | – | 0.1 | 8.6 | 1.4 | 15 | 4.7 | 3.6 | 0.95 | – | 0 | 7.6 | 24 | – | 12 | 23 | kinase still bound, per cent of control [30]: 16%; kinase still bound, per cent of control [40]: 15%; kinase still bound, per cent of control [26]: 24%
